According to article PMC9271792 (Frontiers in Endocrinology, 2022):
Read-outs that look alike come from different tables or passages of the source.

Assays:
[1] = system: mitogenic signalling; conditions: ref [20], cited from earlier work
[2] = system: IR; conditions: compared to insulin; ref [20], [21]; cited from earlier work
[3] = system: IR; conditions: cited from earlier work
From the text: This is similar to the poorly mitogenic S597 peptide, which also promoted slowe ...

[4] = system: IR; conditions: ref [20]; cited from earlier work
[5] = system: IGF-1R; conditions: cited from earlier work
[6] = target: T1, IGF-1R (Homo sapiens, UniProt P08069); test: Kinase receptor activation assay (KIRA), IGF-1R; format: cell-based; conditions: 10 min stimulation, P6 cells
T1 construct: expressed in transfected cells; host or cells: P6 cells (BALB/c3T3 mouse fibroblasts overexpressing human IGF-1R); Triton X-100 lysate captured on anti-IGF-1R antibody 24-31

[7] = system: Akt / GSK-3β / S6 phosphorylation in L6 IR-A cells; test: Western blot time-course, PI3K/Akt pathway, L6 IR-A; format: cell-based, rat cells; human IR-A; conditions: 10 nM; for time to optimal phosphorylation of Akt (Ser473, Thr308) and GSK-3β: maximal up to t = 30 min
Description: (§2) R/^-IR-B (80,000 cells/well) or L6 IR-A cells (240,000 cells/well) were seeded in 6-well plates and allowed to grow to confluence (~ 48 hours). Prior to stimulation, cells were serum starved in SFM/1% BSA for 4 h. […] Lysates were scraped from the well, spun at 13,000 rpm for 3 min at 0°C to remove cell debris and stored at -80°C. Lysate protein concentrations were quantified using Bio-Rad DC™ Protein Assay and 20μg of each sample was separated in 10% glycine gels under reducing conditions. Transferred blots were blocked for 1 h at room temperature in TBST containing 3% BSA and probed with primary antibodies (Pathscan Antibody, pAkt(Thr308), pGSK(Ser9), pAS160(Thr642)) in blocking solution (TBST containing 3% BSA) overnight at 4°C. All blots were also probed with anti-β-tubulin as a loading control. Blots were washed six times for 5 min each in TBST then probed with either HRP-conjugated (dose-response) or fluorophore-conjugated (time-course) secondary antibodies for 1 hour at room temperature. The washing was then repeated.
(§3) Dose response blots were developed in ECL reagent according to manufacturer’s instruction and imaged in Fujiflim LAS-4000 Luminescent Image Analyzer. Time course blots were imaged with an Odyssey® CLx Imaging System. All blots were performed at least three times. All data were analysed with LI-COR Image Studio™ software and each band intensity was normalized to tubulin of its respective lane.

[8] = system: IR-A; test: IR-A receptor internalization; format: cell-based, human; conditions: 10 nM; for IR-A internalization (in words): 2 hours post-stimulation; for IR-A remaining on the cell surface: within 2 h, % of surface/total receptor normalised to SFM t = 0
Description: All data are the mean ± S.E.M. n = at least 3 independent experiments. Error bars are shown when greater than the size of the symbols.
(§1) Assays were performed in triplicate in at least three independent experiments.

[9] = system: ERK 1/2 / p90RSK phosphorylation in L6 IR-A cells; test: Western blot time-course, MAPK pathway, L6 IR-A; format: cell-based, rat cells; human IR-A; conditions: 10 nM, then reducing between t = 10 – 30 min
Description: as §2, §3

[10] = system: L6 rat skeletal myoblasts overexpressing human IR-A (L6 IR-A cells); test: DNA synthesis assay (EdU incorporation); format: cell-based; conditions: 18 h, equipotent within fold stated
Description: as §1

[11] = target: T1, IGF-1R; test: Competition binding assay, europium-labelled IGF-I, IGF-1R
Description: Results are expressed as a percentage of binding in the absence of competing ligand (%B/B0). […] All data are the mean ± S.E.M. n = at least 3 independent experiments. Error bars are shown when greater than the size of the symbols.
Human IR isoform A, isoform B and IGF-1R were solubilized from R^-IR-A, R^-IR-B and P6 cells, respectively. Briefly, cells were serum starved in serum-free medium (SFM) containing 1% (w/v) BSA for 4 h before lysis in ice-cold lysis buffer (20 mM HEPES, 150 mM NaCl, 1.5mM MgCl2, 10% (v/v) glycerol, 1% (v/v) Triton X-100, 1mM EGTA, and 1 mM phenylmethylsulfonyl fluoride, pH 7.5) for 1 h at 4°C. Lysates were centrifuged for 10 min at 2,200g, and then 100 µL of lysate was added per well to a white Greiner Lumitrac 600 96-well plate (16 h at 4°C) previously coated with anti-IR antibody 83-7 or anti-IGF-1R antibody 24-31 (250 ng/well in bicarbonate buffer, pH 9.2). […] Wells were washed with 20 mM Tris, pH 7.4, 150 mM NaCl (TBS) and 0.1% (v/v) Tween 20 (TBST). Then 100 µl/well DELFIA enhancement solution (PerkinElmer Life Sciences) was added. After 10 min, time-resolved fluorescence was measured using 340-nm excitation and 612-nm emission filters with a BMG Lab Technologies Polarstar fluorometer (Mornington, Australia). Assays were performed in triplicate in at least three independent experiments.

[12] = target: T2, IR isoform B (IR-B) (Homo sapiens, UniProt P06213); conditions: compared to insulin; ref [21]–[23], [32]; cited from earlier work
T2 construct: expressed in transfected cells; host or cells: R-IR-B cells (IGF-1R knockout mouse embryonic fibroblasts over-expressing human IR-B); Triton X-100 lysate captured on anti-IR antibody 83-7

[13] = system: IR-B; test: Kinase receptor activation assay (KIRA), IR-B; format: cell-based, human; conditions: 10 min stimulation, Eu-PY20 detection
[14] = system: insulin receptor isoform A (IR-A); conditions: compared to native insulin; ref [21]; cited from earlier work
[15] = system: C57BL6 male mice; test: Insulin tolerance test; format: in vivo, mouse; conditions: 0.75 IU/kg ip, chow fed mice, non-fasting, 2 hours post-treatment
[16] = target: T3, IR isoform A (IR-A) (Homo sapiens, UniProt P06213); conditions: compared to insulin; ref [21]–[23], [32]; cited from earlier work
T3 construct: expressed in transfected cells; host or cells: R-IR-A cells (IGF-1R knockout mouse embryonic fibroblasts over-expressing human IR-A); Triton X-100 lysate captured on anti-IR antibody 83-7

[17] = target: T1, IGF-1R; conditions: % of native insulin; ref [21], [23]; cited from earlier work

T3 sequence (P06213 28-1370 isoform P06213-2 limits assumed): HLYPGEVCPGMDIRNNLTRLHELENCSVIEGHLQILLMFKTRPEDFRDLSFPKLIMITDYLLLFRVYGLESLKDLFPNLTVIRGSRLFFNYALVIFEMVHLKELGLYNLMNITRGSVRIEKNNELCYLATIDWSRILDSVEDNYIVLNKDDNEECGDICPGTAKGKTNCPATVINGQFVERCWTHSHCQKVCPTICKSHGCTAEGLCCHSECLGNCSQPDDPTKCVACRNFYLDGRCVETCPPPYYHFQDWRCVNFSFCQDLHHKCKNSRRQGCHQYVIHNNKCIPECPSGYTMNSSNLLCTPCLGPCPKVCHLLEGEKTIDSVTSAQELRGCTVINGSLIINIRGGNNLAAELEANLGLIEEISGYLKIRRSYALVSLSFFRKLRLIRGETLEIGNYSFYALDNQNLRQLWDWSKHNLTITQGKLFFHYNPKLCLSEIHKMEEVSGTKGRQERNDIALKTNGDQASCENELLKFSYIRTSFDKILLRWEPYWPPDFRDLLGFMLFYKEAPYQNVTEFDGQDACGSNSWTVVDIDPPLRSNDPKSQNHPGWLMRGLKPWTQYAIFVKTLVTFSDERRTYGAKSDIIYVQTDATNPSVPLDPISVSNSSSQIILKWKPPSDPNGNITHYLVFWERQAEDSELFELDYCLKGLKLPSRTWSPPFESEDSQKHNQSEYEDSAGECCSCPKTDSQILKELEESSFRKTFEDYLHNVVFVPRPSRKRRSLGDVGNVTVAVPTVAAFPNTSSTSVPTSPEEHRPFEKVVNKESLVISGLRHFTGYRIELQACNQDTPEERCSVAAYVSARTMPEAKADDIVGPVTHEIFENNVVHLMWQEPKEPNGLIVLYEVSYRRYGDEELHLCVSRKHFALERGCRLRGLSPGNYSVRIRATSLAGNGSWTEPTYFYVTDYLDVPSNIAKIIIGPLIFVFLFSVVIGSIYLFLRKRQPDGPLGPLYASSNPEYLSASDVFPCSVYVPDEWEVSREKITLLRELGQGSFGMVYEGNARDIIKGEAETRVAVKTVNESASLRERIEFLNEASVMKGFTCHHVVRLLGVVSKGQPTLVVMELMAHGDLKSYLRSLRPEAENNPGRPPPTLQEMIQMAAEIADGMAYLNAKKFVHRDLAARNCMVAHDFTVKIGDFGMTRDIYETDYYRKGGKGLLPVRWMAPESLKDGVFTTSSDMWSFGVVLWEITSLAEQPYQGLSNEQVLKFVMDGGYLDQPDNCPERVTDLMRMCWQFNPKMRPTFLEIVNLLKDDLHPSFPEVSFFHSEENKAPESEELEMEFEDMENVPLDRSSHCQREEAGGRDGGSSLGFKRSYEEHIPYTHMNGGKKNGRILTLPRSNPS
T3 sequence (P06213 763-1382 partner limits assumed): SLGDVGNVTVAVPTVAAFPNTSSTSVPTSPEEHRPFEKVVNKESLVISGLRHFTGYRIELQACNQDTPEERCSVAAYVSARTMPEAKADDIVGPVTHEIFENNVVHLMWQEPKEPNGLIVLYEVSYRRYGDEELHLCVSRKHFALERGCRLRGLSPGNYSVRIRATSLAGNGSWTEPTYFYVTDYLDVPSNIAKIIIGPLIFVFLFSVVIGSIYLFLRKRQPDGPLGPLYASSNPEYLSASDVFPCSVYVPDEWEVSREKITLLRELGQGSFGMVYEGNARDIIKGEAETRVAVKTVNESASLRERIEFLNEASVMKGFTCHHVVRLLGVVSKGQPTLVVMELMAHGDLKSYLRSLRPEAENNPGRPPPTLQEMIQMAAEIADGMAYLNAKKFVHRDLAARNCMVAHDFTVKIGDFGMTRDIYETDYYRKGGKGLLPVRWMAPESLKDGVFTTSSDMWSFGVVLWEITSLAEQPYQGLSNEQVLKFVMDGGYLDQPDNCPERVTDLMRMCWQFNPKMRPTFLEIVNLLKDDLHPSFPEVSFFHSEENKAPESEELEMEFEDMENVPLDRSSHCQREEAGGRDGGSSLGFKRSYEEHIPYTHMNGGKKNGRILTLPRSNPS
T2 sequence (P06213 28-758 limits assumed): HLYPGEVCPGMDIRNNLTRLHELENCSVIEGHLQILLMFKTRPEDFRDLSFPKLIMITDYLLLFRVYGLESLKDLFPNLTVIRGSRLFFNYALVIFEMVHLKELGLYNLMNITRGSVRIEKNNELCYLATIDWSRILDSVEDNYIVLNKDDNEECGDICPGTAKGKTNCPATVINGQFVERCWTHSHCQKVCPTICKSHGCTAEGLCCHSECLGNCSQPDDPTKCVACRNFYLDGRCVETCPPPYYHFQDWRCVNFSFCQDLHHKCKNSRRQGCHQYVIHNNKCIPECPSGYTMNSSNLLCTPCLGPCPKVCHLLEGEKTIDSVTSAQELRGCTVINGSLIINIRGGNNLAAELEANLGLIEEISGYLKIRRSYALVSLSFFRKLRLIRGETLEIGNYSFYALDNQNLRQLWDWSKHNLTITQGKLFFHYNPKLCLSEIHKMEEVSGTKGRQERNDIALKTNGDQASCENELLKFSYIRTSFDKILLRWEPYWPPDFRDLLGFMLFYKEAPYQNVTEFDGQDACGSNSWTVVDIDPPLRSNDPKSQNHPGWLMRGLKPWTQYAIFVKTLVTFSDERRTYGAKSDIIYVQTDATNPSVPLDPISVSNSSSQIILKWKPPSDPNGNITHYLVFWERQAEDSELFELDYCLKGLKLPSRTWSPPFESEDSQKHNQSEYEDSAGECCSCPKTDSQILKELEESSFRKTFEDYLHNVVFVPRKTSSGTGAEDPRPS
T2 sequence (P06213 763-1382 partner limits assumed): as the sequence (P06213 763-1382 partner limits assumed) above

## HisB10Asp insulin [insulin X10]
[1]
  mitogenic signalling (in words): enhanced mitogenic signalling
[2]
  rate of dissociation from the IR (in words): reduced rate of dissociation from the IR compared to insulin
[3]; compared to insulin, ref [32]
  phosphorylation of IR-A Tyr960, Tyr1146 and Tyr1322 (in words): increased phosphorylation of IR-A Tyr960, Tyr1146 and Tyr1322 compared to insulin
[3]; ref [20]
  phosphorylation of the IR (in words): sustained phosphorylation of the IR
[4]
  receptor internalization (in words): increased rate of receptor internalization
[5]; compared to insulin, ref [20], [21]
  IGF-1R binding affinity (in words): increased binding affinity for the growth-promoting insulin-like growth factor receptor 1 (IGF-1R)

## human insulin
[6]
  IGF-1R activation (in words): equipotent but poorly activated the IGF-1R
[7]; 0–30 min, p-Akt Ser473, p-Akt Thr308, p-GSK3β, p-S6
  kinetics of activation of the PI3K/Akt pathway (in words): essentially the same
[7]
  time to optimal phosphorylation of Akt (Ser473, Thr308) and GSK-3β: ≤ 20 s
[8]
  IR-A internalization (in words): rapidly induced receptor internalization post-stimulation (evident within 10 min)
  IR-A remaining on the cell surface: 60%
[9]
  time to maximal phosphorylation of ERK1/2 and p90RSK: 10 min

## insulin glargine
[10]
  DNA synthesis, potency difference from native insulin: ≤ 2 fold
[1]; compared to native insulin, [23]
  mitogenic cell signalling (in words): equipotent in promoting mitogenic cell signalling
[11]; % of native insulin
  IGF-1R affinity compared to native insulin: 480%
[11]; competition for europium-labelled IGF-I, solubilized receptor from P6 cells, 16 h at 4°C, mean ± S.E.M., n = 3 or more
  IC50: 6.71 ± 3.9 nM
[12]
  IR-B binding, literature range: 50-85%
[7]
  time to optimal phosphorylation of Akt (Ser473, Thr308) and GSK-3β: ≤ 20 s
[8]
  IR-A internalization (in words): rapidly induced receptor internalization post-stimulation (evident within 10 min)
  IR-A remaining on the cell surface: 60%
[13]
  IR-B activation (in words): potency similar to native insulin
[14]
  IR-A dissociation kinetics (in words): dissociation kinetics do not differ from native insulin
[9]
  time to maximal phosphorylation of ERK1/2 and p90RSK: 10 min
[15]
  blood glucose lowering (in words): no statistical difference
[5]; compared to native insulin, ref [22]
  IGF-1R binding affinity (in words): binds to the IGF-1R with higher affinity
[16]
  IR-A binding, literature range: 40-86%
[17]
  IGF-1R affinity, literature range: 460–650%
